# Patent publication US11945779B2, “Inhibitors of cancer metastasis through inhibiting migration and invasion of cancer cells” (VSpharmtech, priority 2018, dated 2024)
# Tests used:
# [1] = system: human melanoma cell line A375P; assay: Lamellipodia formation inhibition (confocal microscope), A375P; type: cell-based; conditions: A375-p, 6 hours, FIG. 9
# Protocol: A human colon cancer cell line DLD-1, a human pancreatic cancer cell line AsPc-1, a human melanoma cell line A375P, and normal cells MCF10A were each cultured to 1×10^5 cell density on a 35 mm high-m dish plate (ibid GmbH). The cells attached to the plate were washed with phosphate buffered saline (PBS) and then treated with DMSO or CG-618 dissolved in DMSO for 6 hours. After removing the cell culture medium from the plate, the plate was washed two times with PBS and treated with 4% paraformaldehyde dissolved in PBS at room temperature for 10 minutes to immobilize the cells. The plate was washed with PBS once and then treated with 0.2% Triton X-100 at room temperature for 10 minutes to enhance cell permeability. The plate was washed with PBS and treated with 1% BSA dissolved in PBS at room temperature for 1 hour to block non-specific bonds. In order to check the distribution in cells of filament actin (F-actin), phalloidin bound with Alexa Fluor 488, which was specifically bound with F-actin, was treated at room temperature for 15 minutes. The plate was washed with PBS three times and then treated with 2 mg/mL 4′,6′-diamidino-2-phenylindole (DAPAI) dissolved in PBS for two minutes at room temperature to dye the nucleus. The plate was washed with PBS three times and filled with 1 mL PBS. […] The obtained images were analyzed by an analysis program (LSM Version 3.2 software).
# [2] = system: human-derived colon cancer cell line (HCT-116 luciferase); assay: Colon cancer liver metastasis implant model in nude mouse (live animal imaging); type: in vivo; conditions: for Cancer metastasis inhibitory effect by whole image data: 20 times, five times a week
# Text: In this experiment, a human-derived colon cancer cell line (HCT-116 luciferase) was implanted to the spleen and then the spleen was removed and sutured after four days. In a colon cancer liver metastasis implant model, cancer metastasis inhibitory activity by oral administration of CG-609 was verified using a live animal imaging system. As the animal, an Athymic-NCr NCr-nu SPF 5-week-old nude mouse supplied from Koatech (Pyeongtaek-si, Gyeonggi-do) was used. By adjusting a concentration of cancer cells to 2×10^6 cells/mL, the cell culture solution was injected directly into the spleen using a syringe (31 G needle, ½ cc) by 30 μL per mouse. The drug CG-609 was dissolved to a concentration of 5 mg/kg or 10 mg/kg using 0.5% Tween80 and then orally administered to the mouse in an amount of 10 mL/kg total 20 times on a schedule of five times a week.
# HCT-116 luciferase cells were implanted, drug administration started from the day after the cancer cell was implanted, and the cells were imaged a total of seven times until the 25th day, the end of the experiment. During imaging, 50 μL of […] was intraperitoneally administered into each side of the animal's abdomen at a concentration of luciferin 15 mg/mL, and then photographed using an optical imaging system (IVIS-spectrum CT, PerkinElmer). On the final day of the test, the mouse was imaged and then […], and major organs (liver, kidney, and colon) were extracted to be imaged, and then the degree of image signal was measured. The values of all measurement items were tested for statistical significance by comparing a solvent control and a drug administration group using a t-TEST statistical method (FIGS. 10A and 10B).
Structure (SMILES),Formation of lamellipodia [1],Colon metastasis inhibitory effect ([2]; 5 mg/kg oral),Liver metastasis inhibitory effect ([2]; 5 mg/kg oral),Renal metastasis inhibitory effect ([2]; 5 mg/kg oral),Cancer metastasis inhibitory effect by whole image data ([2]; 5 mg/kg oral),"Inhibition of cancer metastasis in animal experiment ([2]; 5 mg/kg, 10 times lower dose than benproperine (50 mg/kg), FIGS. 10A and 10B)",Colon metastasis inhibitory effect ([2]; 10 mg/kg oral),Liver metastasis inhibitory effect ([2]; 10 mg/kg oral),Renal metastasis inhibitory effect ([2]; 10 mg/kg oral),Cancer metastasis inhibitory effect by whole image data ([2]; 10 mg/kg oral)
"CC1CCCCN1C(C)COc1ccccc1Cc1ccccc1 (racemic) [CG-618, 1-(1-(2-benzylphenoxy)propan-2-yl)-2-methylpiperidine]",inhibits formation of lamellipodia,,,,,,,,,
"C[C@H](COc1ccccc1Cc1ccccc1)N1CCCC[C@@H]1C [CG-609, (S)-1-((R)-1-(2-benzylphenoxy)propan-2-yl)-2-methylpiperidine]",,76.9%,47.7%,72.4%,77.9%,≥ 50%,85.6%,58.6%,76.1%,80.1%
